Data set [1] relates to RARβ. The data set is described as follows: RARβ mRNA expression in SH-SY5Y cells, real-time PCR. The class given is cell-based, human. The settings on record: ATRA 0.01 μM or 13cisRA 0.1 μM with R116010 1 μM vs retinoid alone, 24 h. The method, then: SH-SY5Y, SH-EP (N- and S-type cells respectively derived from the parental line SK-N-SH), LAN6, IMR-32, NGP and GIMEN neuroblastoma cell lines were cultured routinely in RPMI 1640 medium containing fetal calf serum (10%) and L-glutamine (2 mM). Cells were grown at 37°C in a humidified incubator containing 5% CO2.
13-cis-Retinoic acid and ATRA were dissolved in DMSO and diluted in cell culture medium to obtain final concentrations of 0.1–10 μM. The final concentration of DMSO in all cases was <0.2%. All experiments were performed in dim light and tubes containing retinoids were wrapped in aluminium foil.
RNA was reverse-transcribed using Promega's Reverse Transcription System according to the manufacturer's instructions, using random hexamer primers. Real-time PCR was performed on 20 ng cDNA using TaqMan gene expression products for human CYP26A1, CYP26B1, CRABPII, RARβ and MYCN in combination with the TaqMan Universal PCR master mix (Applied Biosystems, Warrington, UK). […] As internal standard, β-actin was measured simultaneously using the endogenous control assay provided by Applied Biosystems. […] Standard curves were generated from serial dilutions of cDNA prepared from cells treated with ATRA (1 μM) and the data were analysed using the GeneAmp Sequence Detection System software. CYP26C1 expression was analysed as described previously ([Taimi et al, 2004]).

The nature of data set [2]: Pharmacokinetic analysis of RA in an SH-SY5Y xenograft model (retinoid concentrations in plasma, liver, tumour by LC/MS). The class given is in vivo, CD-1 nude mice. The settings on record: for % Total retinoids, tumour, 0.5 h / % Total retinoids, tumour, 2 h / % Total retinoids, tumour, 6 h / % Total retinoids, liver, 0.5 h / % Total retinoids, liver, 2 h / % Total retinoids, liver, 6 h / % Total retinoids, plasma, 0.5 h / % Total retinoids, plasma, 2 h / % Total retinoids, plasma, 6 h / concentration at 0.5 h / concentration at 2 h / concentration at 6 h: label = retinoid measured; for concentration at 0.5 h / concentration at 2 h / concentration at 6 h: po. The method, then: All in vivo experiments were approved by the relevant institutional animal welfare committees, and performed according to national law. Female athymic nude mice (CD-1 nu/nu, Charles River) used for antitumour studies were maintained and handled in isolators, under specific pathogen-free conditions, at 24°C with a 12 h light, 12 h dark cycle. Tumours were generated by implantation of SH-SY5Y cells subcutaneously (s.c.) into one flank of CD-1 nude mice (1 × 10^7 cells per animal).
Treatments began when the tumours were between 7 and 10 mm in length and breadth. Retinoids and R116010 were initially dissolved in DMSO before 10- or 20-fold dilutions in PBS, respectively. For pharmacokinetic studies, the animals were dosed with ATRA or 13cisRA (each 100 mg kg^−1) orally for 0.5, 2 and 6 h. For metabolism studies, animals were treated with R116010 orally at doses of 1.25 or 2.5 mg kg^−1 either immediately before the retinoid being studied, or up to three times (over 1–2 days) before dosing with the retinoid. At termination of experiments, animals were bled under terminal anaesthesia then killed by cervical dislocation. Plasma was immediately removed from the blood by centrifugation at 1000 g for 5 min and snap-frozen in liquid nitrogen in amber Eppendorfs. Tumour and liver samples were removed and snap-frozen, wrapped in foil, in liquid nitrogen.
Cell pellets obtained from retinoid incubations were re-suspended in 2 ml cell culture medium and disrupted by passing the samples several times through a syringe and hypodermic needle (25G × 1 inches, 0.5 mm × 25 mm; Terumo, Somerset, NJ, USA). Tumour and liver tissues were re-suspended in PBS and homogenised (T25 homogeniser, IKA Laboratories, Staufen, Germany). Retinoids were extracted as described previously ([Veal et al, 2002]; [Armstrong et al, 2005b]). Samples were reconstituted in 200 μl mobile phase A (n-hexane:dichloromethane:propan-2-ol, 400 : 1 : 0.27) and analysed by normal-phase HPLC as described previously ([Veal et al, 2002]). For LC/MS analysis, samples were reconstituted in 200 μl mobile phase A (50% acetonitrile, 50% (0.2%) acetic acid, v v^−1).
Resolution of retinoids was performed with a Luna C18(2) column (3 μm, 50 mm × 2 mm) using a Perkin Elmer LC (Beaconsfield, UK) system, consisting of a vacuum degasser, two series 200 pumps, a thermostatically controlled series 200 autosampler and a Waters 2487 UV absorbance detector. Retinoic isomers and metabolites were separated by gradient reversed-phase chromatography. An injection volume of 20 μl with a flow rate of 0.2 ml min^−1 was used with mobile phase A (50% acetonitrile, 50% (0.2%) acetic acid, v v^−1) and mobile phase B (acetonitrile, 0.1% acetic acid, v v^−1). Linear gradients were employed between the specified times as follows: 0, 100% A; 5 min, 100% A; 15 min, 100% B; 20 min, 100% B; 23 min, 100% A; 35 min, 100% A. An Applied Biosystems (Warrington, UK) API-2000 LC/MS/MS triple Q (quadrupole) mass spectrometer with electrospray ionisation source, controlled by Analyst software, was operated in single quadrupole negative mode for the detection of compounds.

Setting [3] is: after 13cisRA 100 mg kg^−1 oral, SH-SY5Y tumour.
Setting [4] is: after 13cisRA 100 mg kg^−1 oral, liver.
[5] abbreviates: after 13cisRA 100 mg kg^−1 oral, plasma.
[6] abbreviates: after ATRA 100 mg kg^−1 oral, SH-SY5Y tumour.
Where [7] appears, read: after ATRA 100 mg kg^−1 oral, liver.
Setting [8] is: after ATRA 100 mg kg^−1 oral, plasma.

The structures appear in SMILES notation. Like-named read-outs stand apart in the source and are kept apart here. Where only a bound is given, the exact number is not on record here.

`C[C@@H]([C@H](c1ccc(Nc2nc3ccccc3s2)cc1)n1ccnc1)N(C)C` [R116010]: the “Effect on RARβ expression, co-incubation with retinoid” value in data set [1] is “significant increases”.
For `CC1=C(/C=C/C(C)=C/C=C/C(C)=C/C(=O)O)C(C)(C)CCC1` [ATRA, all-trans-retinoic acid], the “Plasma % of total retinoids at all time points” value in data set [2] (after 13cisRA 100 mg kg^−1, plasma, 0.5, 2 and 6 h) is on record as less than 10%. Moreover, the “% Total retinoids, tumour, 0.5 h” value in data set [2] (setting [3]) is 7%; in data set [2] (setting [6]) it was 90%. For the same compound, the “% Total retinoids, tumour, 2 h” value in data set [2] (setting [3]) was 14%; in data set [2] (setting [6]), 95%. Further, the “% Total retinoids, tumour, 6 h” value is 16% in data set [2] (setting [3]) and 80% in data set [2] (setting [6]). The “% Total retinoids, liver, 0.5 h” value is on record as 2% in data set [2] (setting [4]) and 77% in data set [2] (setting [7]). Besides, the “% Total retinoids, liver, 2 h” value in data set [2] (setting [4]) is listed as 1%; in data set [2] (setting [7]), 81%. The “% Total retinoids, liver, 6 h” value in data set [2] (setting [4]) is reported as less than 1%; in data set [2] (setting [7]), 46%. Further, the “% Total retinoids, plasma, 0.5 h” value in data set [2] (setting [5]) is 5%; in data set [2] (setting [8]), 91%. Also, the “% Total retinoids, plasma, 2 h” value in data set [2] (setting [5]) was 3%; in data set [2] (setting [8]), 88%. The “% Total retinoids, plasma, 6 h” value in data set [2] (setting [5]) is 1%; in data set [2] (setting [8]), 70%. In addition, in data set [2] (after ATRA 100 mg kg^−1, tumour, 0.5, 2 and 6 h), the “Intratumoral % of total retinoids at all time points” value is on record as no less than 80%. The concentration at 0.5 h in data set [2] (female, CD-1 nu/nu (athymic nude), mouse, liver, 100 mg kg^−1, after 13cisRA 100 mg kg^−1 oral, liver, read-out: Liver concentration, 0.5 h) was found to be 120 ± 80 ng/g; in data set [2] (female, CD-1 nu/nu (athymic nude), mouse, liver, 100 mg kg^−1, after ATRA 100 mg kg^−1 oral, liver, read-out: Liver concentration, 0.5 h), 3070 ± 1950 ng/g; in data set [2] (female, CD-1 nu/nu (athymic nude), mouse, plasma, 100 mg kg^−1, after 13cisRA 100 mg kg^−1 oral, plasma, read-out: Plasma concentration, 0.5 h) it was 0.69 ± 0.49 µM; in data set [2] (female, CD-1 nu/nu (athymic nude), mouse, plasma, 100 mg kg^−1, after ATRA 100 mg kg^−1 oral, plasma, read-out: Plasma concentration, 0.5 h), 13 ± 10.4 µM; in data set [2] (female, CD-1 nu/nu (athymic nude), mouse, tumour (SH-SY5Y xenograft), 100 mg kg^−1, after 13cisRA 100 mg kg^−1 oral, SH-SY5Y tumour, read-out: Tumour concentration, 0.5 h), 150 ± 90 ng/g; in data set [2] (female, CD-1 nu/nu (athymic nude), mouse, tumour (SH-SY5Y xenograft), 100 mg kg^−1, after ATRA 100 mg kg^−1 oral, SH-SY5Y tumour, read-out: Tumour concentration, 0.5 h) it was 2590 ± 2280 ng/g. Also, the concentration at 2 h in data set [2] (female, CD-1 nu/nu (athymic nude), mouse, liver, 100 mg kg^−1, after 13cisRA 100 mg kg^−1 oral, liver, read-out: Liver concentration, 2 h) was 50 ± 50 ng/g; in data set [2] (female, CD-1 nu/nu (athymic nude), mouse, liver, 100 mg kg^−1, after ATRA 100 mg kg^−1 oral, liver, read-out: Liver concentration, 2 h), 6920 ± 1130 ng/g; in data set [2] (female, CD-1 nu/nu (athymic nude), mouse, plasma, 100 mg kg^−1, after 13cisRA 100 mg kg^−1 oral, plasma, read-out: Plasma concentration, 2 h), 0.57 ± 0.57 µM; in data set [2] (female, CD-1 nu/nu (athymic nude), mouse, plasma, 100 mg kg^−1, after ATRA 100 mg kg^−1 oral, plasma, read-out: Plasma concentration, 2 h) it was 24.4 ± 1.94 µM; in data set [2] (female, CD-1 nu/nu (athymic nude), mouse, tumour (SH-SY5Y xenograft), 100 mg kg^−1, after 13cisRA 100 mg kg^−1 oral, SH-SY5Y tumour, read-out: Tumour concentration, 2 h) it was 370 ± 160 ng/g; in data set [2] (female, CD-1 nu/nu (athymic nude), mouse, tumour (SH-SY5Y xenograft), 100 mg kg^−1, after ATRA 100 mg kg^−1 oral, SH-SY5Y tumour, read-out: Tumour concentration, 2 h), 9410 ± 2230 ng/g. Further, the concentration at 6 h worked out at 20 ± 20 ng/g in data set [2] (female, CD-1 nu/nu (athymic nude), mouse, liver, 100 mg kg^−1, after 13cisRA 100 mg kg^−1 oral, liver, read-out: Liver concentration, 6 h); 2400 ± 360 ng/g in data set [2] (female, CD-1 nu/nu (athymic nude), mouse, liver, 100 mg kg^−1, after ATRA 100 mg kg^−1 oral, liver, read-out: Liver concentration, 6 h); 0.08 ± 0.08 µM in data set [2] (female, CD-1 nu/nu (athymic nude), mouse, plasma, 100 mg kg^−1, after 13cisRA 100 mg kg^−1 oral, plasma, read-out: Plasma concentration, 6 h); 12.8 ± 4.61 µM in data set [2] (female, CD-1 nu/nu (athymic nude), mouse, plasma, 100 mg kg^−1, after ATRA 100 mg kg^−1 oral, plasma, read-out: Plasma concentration, 6 h); 90 ± 20 ng/g in data set [2] (female, CD-1 nu/nu (athymic nude), mouse, tumour (SH-SY5Y xenograft), 100 mg kg^−1, after 13cisRA 100 mg kg^−1 oral, SH-SY5Y tumour, read-out: Tumour concentration, 6 h); 3780 ± 590 ng/g in data set [2] (female, CD-1 nu/nu (athymic nude), mouse, tumour (SH-SY5Y xenograft), 100 mg kg^−1, after ATRA 100 mg kg^−1 oral, SH-SY5Y tumour, read-out: Tumour concentration, 6 h). For the same compound, in data set [2] (female, CD-1 nu/nu (athymic nude), mouse, plasma, 100 mg kg^−1 oral, sampled at 0.5, 2, 6 h, read-out: Time of peak plasma levels), the Tmax turned out to be 2 h.

For the origin of these results see paper PMC2359919, “Molecular targeting of retinoic acid metabolism in neuroblastoma: the role of the CYP26 inhibitor R116010 in vitro and in vivo” (British Journal of Cancer, 2007).
